Laboratory results from US9181288B2, “Azepane derivatives and methods of treating hepatitis B infections” (Novira Therapeutics, Inc., priority 2014, dated 2015).

How the values were obtained:
[1] = biological target: HBV C150Bo capsid protein (mutant C150 HBV core protein labeled with BODIPY-FL) (Hepatitis B virus genotype D subtype adw, UniProt P03147, C107A/C48A/C61A/R150C); assay: HBV assembly assay (fluorescence quenching in vitro capsid assembly); type: biochemical; conditions: at about 10 μM; 50 mM Hepes pH 7.5, 150 mM NaCl, 1 hour room temperature
[2] = system: HBV replication in HepG2-2.2.15 cells; assay: Inhibition of HBV replication dot-blot assay; type: cell-based; conditions: Hepatitis B virus, 144 h, six days, reduction in HBV DNA levels
Description: Compounds active in the HBV assembly assay are tested for their activity and toxicity in cellular assay. In the first anti-viral assay, the ability of compounds to inhibit HBV replication in an HBV-producing hepatoma cell line using the dot-blot method is evaluated.
Briefly, confluent monolayers of HepG2-2.2.15 cells are incubated with complete medium containing various concentrations of a test compound. Three days later, the culture medium is replaced with fresh medium containing the appropriately diluted test compound. Six days following the initial administration of the test compound, the cell culture supernatant is collected, and cell lysis is performed. The samples are applied onto Nylos membranes and DNA is immobilized to the membrane by UV cross-linking. After pre-hybridization, the HBV probe is added and the hybridization is performed overnight. The membranes are exposed to the Kodak films; antiviral activity is calculated from the reduction in HBV DNA levels (EC50). The EC50 for antiviral activity is calculated from the dose response curves of active compounds. Assay performance over time is monitored by the use of the standard positive control compounds ETV, BAY 41-4109, and HAP-1.
Selected compounds were tested for their activity and toxicity in cellular assay. In the first anti-viral assay, the ability of compounds to inhibit HBV replication in an HBV-producing hepatoma cell line using the dot-blot method was evaluated.
Confluent monolayers of HepG2-2.2.15 cells were incubated with complete medium containing various concentrations of a test compound. Three days later, the culture medium was replaced with fresh medium containing the appropriately diluted test compound. Six days following the initial administration of the test compound, the cell culture supernatant was collected, and cell lysis was performed. The samples were applied onto Nylos membranes and DNA was immobilized to the membrane by UV cross-linking. After pre-hybridization, the HBV probe was added and the hybridization was performed overnight. The membranes were exposed to the Kodak films; antiviral activity was calculated from the reduction in HBV DNA levels (EC50). The EC50 for antiviral activity was calculated from the dose response curves of active compounds. Assay performance over time was monitored by the use of the standard positive control compounds ETV, BAY 41-4109, and HAP-1.

HBV C150Bo capsid protein (mutant C150 HBV core protein labeled with BODIPY-FL), sequence (P03147 1-150 C48A/C61A/C107A/R150C): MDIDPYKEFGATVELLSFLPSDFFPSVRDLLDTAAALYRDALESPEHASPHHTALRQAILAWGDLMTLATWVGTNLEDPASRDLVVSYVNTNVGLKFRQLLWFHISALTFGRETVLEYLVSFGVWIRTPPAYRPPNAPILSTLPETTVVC

Structure (SMILES) | Activity (HBV assembly assay) [1] | inhibition at 10 µM [2] [%]
CC1(O)CCCN(S(=O)(=O)c2cc(C(=O)Nc3cc(F)c(F)c(F)c3)ccc2CF)CC1 (stereo not shown) [Compound 1829-2] | + (‘+’ indicates >50% activity at about 10 μM) | > 50
O=C(Nc1ccc(F)c(Cl)c1)c1cc(S(=O)(=O)N2CCCC(O)CC2)c2[nH]cnc2c1 (stereo not shown) [Compound 2033] | + (‘+’ indicates >50% activity at about 10 μM) | > 50
CC1(O)CCCCN(S(=O)(=O)c2cc(C(=O)Nc3ccc(F)c(Cl)c3)ccc2F)C1 (stereo not shown) [Compound 1890] | + (‘+’ indicates >50% activity at about 10 μM) | > 50
COc1ccc(C(=O)Nc2ccc(F)c(Cl)c2)cc1S(=O)(=O)N1CCOCC(O)C1 (stereo not shown) [Compound 1980] | + (‘+’ indicates >50% activity at about 10 μM) | > 50
O=C(Nc1cc(F)c(F)c(F)c1)c1ccc(F)c(S(=O)(=O)N2CC(O)CCC(F)C2)c1 (stereo not shown) [Compound 1826_D2] | + (‘+’ indicates >50% activity at about 10 μM) | > 50
O=C(Nc1ccc(F)c(Cl)c1)c1ccc(F)c(S(=O)(=O)N2C[C@H](O)CC[C@@H](O)C2)c1 [Compound 2433_D1] | + (‘+’ indicates >50% activity at about 10 μM) | > 50
O=C(Nc1ccc(F)c(Cl)c1)c1ccc(F)c(S(=O)(=O)N2CCCC(F)CC2)c1 (stereo not shown) [Compound 2123] | + (‘+’ indicates >50% activity at about 10 μM) | > 50
O=C(Nc1cc(F)c(F)c(F)c1)c1ccc(CF)c(S(=O)(=O)N2CC(O)CC3CC3C2)c1 (stereo not shown) [Compound 2550] | + (‘+’ indicates >50% activity at about 10 μM) | > 50
O=C(Nc1ccc(F)c(Cl)c1)c1ccc(F)c(S(=O)(=O)N2CCC[C@H](O)CC2)c1 [Compound 1766_E2] | + (‘+’ indicates >50% activity at about 10 μM) | > 50
O=C(Nc1cc(F)c(F)c(F)c1)c1ccc(F)c(S(=O)(=O)N2CCCC(F)C(O)C2)c1 (stereo not shown) [Compound 1820] | + (‘+’ indicates >50% activity at about 10 μM) | > 50
O=C(Nc1cc(F)c(F)c(F)c1)c1ccc(CF)c(S(=O)(=O)N2CCCCCC2)c1 [Compound 2002] | + (‘+’ indicates >50% activity at about 10 μM) | > 50
O=C(Nc1ccc(F)c(Cl)c1)c1ccc(F)c(S(=O)(=O)N2CCC[C@@H](O)CC2)c1 [Compound 1766_E1] | + (‘+’ indicates >50% activity at about 10 μM) | > 50
O=C(Nc1ccc(F)c(Cl)c1)c1ccc(CF)c(S(=O)(=O)N2CCCC(O)CC2)c1 (stereo not shown) [Compound 1819] | + (‘+’ indicates >50% activity at about 10 μM) | > 50
CC1(O)CCCN(S(=O)(=O)c2cc(C(=O)Nc3ccc(F)c(F)c3)ccc2F)CC1 (stereo not shown) [Compound 1938] | + (‘+’ indicates >50% activity at about 10 μM) | > 50
O=C(Nc1cc(F)c(F)c(F)c1)c1ccc(CCF)c(S(=O)(=O)N2CCCC(O)CC2)c1 (stereo not shown) [Compound 2206] | + (‘+’ indicates >50% activity at about 10 μM) | > 50
O=C(Nc1ccc(F)c(Cl)c1)c1ccc(CF)c(S(=O)(=O)N2CCOCC(O)C2)c1 (stereo not shown) [Compound 1983] | + (‘+’ indicates >50% activity at about 10 μM) | > 50
O=C(Nc1ccc(F)c(F)c1)c1ccc(F)c(S(=O)(=O)N2CCCC(F)C(O)C2)c1 (stereo not shown) [Compound 1821] | + (‘+’ indicates >50% activity at about 10 μM) | > 50
O=C(Nc1cc(F)c(F)c(F)c1)c1ccc(F)c(S(=O)(=O)N2CCCC(O)C(F)(F)C2)c1 (stereo not shown) [Compound 2199] | + (‘+’ indicates >50% activity at about 10 μM) | > 50

Structure (SMILES) | Activity (HBV assembly assay) [1] | inhibition at 10 µM [2] [%]
O=C(Nc1ccc(F)c(F)c1)c1ccc(F)c(S(=O)(=O)N2CCOCC(O)C2)c1 (stereo not shown) [Compound 1894] | + (‘+’ indicates >50% activity at about 10 μM) | > 50
O=C(Nc1ccc(F)c(Cl)c1)c1ccc(CF)c(S(=O)(=O)N2CCCCCC2)c1 [Compound 2004] | + (‘+’ indicates >50% activity at about 10 μM) | > 50
COc1ccc(C(=O)Nc2ccc(F)c(F)c2)cc1S(=O)(=O)N1CCOCC(O)C1 (stereo not shown) [Compound 1979] | + (‘+’ indicates >50% activity at about 10 μM) | > 50
O=C(Nc1ccc(F)c(Cl)c1)c1ccc(F)c(S(=O)(=O)N2CCCC(F)[C@H](O)C2)c1 (stereo partly shown) [Compound 1822_D2] | + (‘+’ indicates >50% activity at about 10 μM) | > 50
CC1(O)CCCCN(S(=O)(=O)c2cc(C(=O)Nc3cc(F)c(F)c(F)c3)ccc2F)C1 (stereo not shown) [Compound 1892] | + (‘+’ indicates >50% activity at about 10 μM) | > 50
Cc1ccc(C(=O)Nc2cc(F)c(F)c(F)c2)cc1S(=O)(=O)N1CCCCC(O)C1 (stereo not shown) [Compound 1915] | + (‘+’ indicates >50% activity at about 10 μM) | > 50
O=C(Nc1ccc(F)c(Cl)c1)c1ccc(F)c(S(=O)(=O)N2CCOC[C@@H](O)C2)c1 [Compound 1893_E1] | + (‘+’ indicates >50% activity at about 10 μM) | > 50
O=C(Nc1ccc(F)c(Cl)c1)c1ccc(F)c(S(=O)(=O)N2C[C@H](O)CC[C@H](O)C2)c1 [Compound 2433_D2, N-(3-chloro-4-fluoro-phenyl)-3-(3,6-dihydroxyazepan-1-yl)sulfonyl-4-fluoro-benzamide] | + (‘+’ indicates >50% activity at about 10 μM) | > 50
COc1ccc(C(=O)Nc2ccc(F)c(Cl)c2)cc1S(=O)(=O)N1CCCC(O)C(F)C1 (stereo not shown) [Compound 2114_D1] | + (‘+’ indicates >50% activity at about 10 μM) | > 50
O=C(Nc1ccc(F)c(Cl)c1)c1ccc(F)c(S(=O)(=O)N2CCOCC(O)(C3CC3)C2)c1 (stereo not shown) [Compound 1989] | + (‘+’ indicates >50% activity at about 10 μM) | > 50
O=C(Nc1ccc(F)c(Cl)c1)c1ccc(CO)c(S(=O)(=O)N2CCCC(F)CC2)c1 (stereo not shown) [Compound 1769] | + (‘+’ indicates >50% activity at about 10 μM) | > 50
O=C(Nc1ccc(F)c(F)c1)c1ccc(CF)c(S(=O)(=O)N2CCCC(O)CC2)c1 (stereo not shown) [Compound 1917] | + (‘+’ indicates >50% activity at about 10 μM) | > 50
CC(=O)O[C@@H]1CC[C@@H](O)CN(S(=O)(=O)c2cc(C(=O)Nc3cc(F)c(F)c(F)c3)ccc2F)C1 [Compound 2618_D1] | + (‘+’ indicates >50% activity at about 10 μM) | > 50
O=C(Nc1cc(F)c(F)c(F)c1)c1ccc(F)c(S(=O)(=O)N2CCC(O)C(F)(F)CC2)c1 (stereo not shown) [Compound 2202] | + (‘+’ indicates >50% activity at about 10 μM) | > 50
CC(=O)O[C@@H]1CC[C@H](OC(C)=O)CN(S(=O)(=O)c2cc(C(=O)Nc3ccc(F)c(Cl)c3)ccc2F)C1 [Compound 2626_D2] | + (‘+’ indicates >50% activity at about 10 μM) | > 50
O=C(Nc1cc(F)c(F)c(F)c1)c1ccc(CF)c(S(=O)(=O)N2CCOCC(O)(C3CC3)C2)c1 (stereo not shown) [Compound 2505] | + (‘+’ indicates >50% activity at about 10 μM) | > 50
O=C(Nc1ccc(F)c(Cl)c1)c1ccc(CO)c(S(=O)(=O)N2CCCCC(F)C2)c1 (stereo not shown) [Compound 1768] | + (‘+’ indicates >50% activity at about 10 μM) | > 50
